The values below come from patent publication US10138229B2, “Heteroaromatic compounds as BTK inhibitors” (Boehringer Ingelheim International GmbH, priority 2012, dated 2018).

The IC50 is the concentration that inhibits the measured activity by half. The low end stands for higher potency, the high end for lower potency.

The target in the assay is full-length human His-tagged BTK (Homo sapiens (Human), UniProt Q06187). As to the kind of experiment: BTK Assay (HTRF, Cisbio KinEASE-TK). In kind it is biochemical. The settings on record: 6 nM BTK, 30 uM ATP, 15 min preincubation.
Chain of full-length human His-tagged BTK (Q06187 whole entry): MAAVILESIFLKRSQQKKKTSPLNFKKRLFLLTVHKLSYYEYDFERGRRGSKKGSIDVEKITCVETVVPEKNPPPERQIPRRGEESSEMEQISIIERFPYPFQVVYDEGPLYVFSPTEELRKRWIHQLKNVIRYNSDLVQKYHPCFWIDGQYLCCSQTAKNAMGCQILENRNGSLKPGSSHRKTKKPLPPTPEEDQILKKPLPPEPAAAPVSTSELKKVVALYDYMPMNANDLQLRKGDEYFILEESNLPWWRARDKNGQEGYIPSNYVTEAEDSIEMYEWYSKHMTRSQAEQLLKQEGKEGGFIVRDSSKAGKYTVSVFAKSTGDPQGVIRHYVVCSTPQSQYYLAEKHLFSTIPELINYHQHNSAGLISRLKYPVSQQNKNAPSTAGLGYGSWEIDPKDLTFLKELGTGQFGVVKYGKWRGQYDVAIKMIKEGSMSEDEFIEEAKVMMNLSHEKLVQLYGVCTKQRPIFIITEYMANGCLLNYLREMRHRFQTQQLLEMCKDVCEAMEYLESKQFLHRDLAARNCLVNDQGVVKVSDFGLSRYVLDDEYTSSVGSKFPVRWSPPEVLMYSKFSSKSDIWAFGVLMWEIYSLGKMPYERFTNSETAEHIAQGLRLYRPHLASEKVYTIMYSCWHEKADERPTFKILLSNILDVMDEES

Method: An HTRF assay (Cisbio KinEASE-TK cat #62TKOPEC) was performed to quantitate the ability of test compounds to inhibit BTK mediated phosphorylation of substrate. Assays were assembled in 384 well plates where 6 nM of full-length human His-tagged BTK (Life Technologies cat # PV3587) and test compound at varying concentrations were preincubated for 15 minutes at 28° C. Then, 1 uM of TK substrate-biotin and 30 uM ATP were added and incubated for an additional 30 minutes at 28° C.

The compound `C=CC(=O)N1CC2(CC(n3nc(-c4ccc(OCC(F)(F)F)cc4)c(C(N)=O)c3N)C2)C1` [Example 116] came in with an IC50 of 12 nM. On to `CC#CC(=O)N1CC2(CC(n3nc(-c4ccc(Oc5ccccc5)cn4)c(C(N)=O)c3N)C2)C1` [Example 110], for which it took 0.87 nM to reach half-maximal inhibition (IC50). To `CC#CC(=O)N1CC[C@]2(C1)C[C@H](n1cc(C(N)=O)c(-c3ccc(Oc4ccccc4)cc3)n1)C2` [Example 38] belongs 13 nM; to `C=CC(=O)N1CCC[C@@H](n2cc(C(N)=O)c(-c3ccc(Oc4ccc(Cl)c(Cl)c4)cc3)n2)C1` [Example 69], 43 nM. To `C=CC(=O)N1CC[C@]2(C1)C[C@@H](n1cc(C(N)=O)c(-c3ccc(Oc4ccccc4)cc3)n1)C2` [Example 88] belongs 21 nM. As for `C=CC(=O)N1CCC(n2cc(C(N)=O)c(-c3ccc(Oc4ccccc4)cc3)n2)CC1` [Example 55], the midpoint of inhibition, the IC50, lay at 6.6 nM.

Compound `CC#CC(=O)N1CC[C@]2(C1)C[C@H](n1nc(-c3ccc(OCC)cc3)c(C(N)=O)c1N)C2` [Example 167] yielded an IC50 of 0.9 nM.

The compound `CC#CC(=O)N1CCC(Cn2cc(C(N)=O)c(-c3ccc(Oc4ccccc4)cc3)n2)CC1` [Example 49] returned an IC50 of 180 nM.

Turning to `C=CC(=O)N1CC2(CC(n3nc(-c4ccc(Oc5ccccc5)nc4)c(C(N)=O)c3N)C2)C1` [Example 101], 9.2 nM corresponded to half-maximal inhibition (IC50). For `CC#CC(=O)N1CC2(CC(n3nc(-c4ccc(F)c(C(F)(F)F)c4)c(C(N)=O)c3N)C2)C1` [Example 143] the value was 37 nM; for `CN(C)C/C=C/C(=O)N1CCC[C@@H](n2cc(C(N)=O)c(-c3ccc(Oc4ccccc4)cc3)n2)C1` [Example 30], 57 nM. `C=CC(=O)N1CC[C@]2(C1)C[C@H](n1nc(-c3ccc(OC)cc3)c(C(N)=O)c1N)C2` [Example 153] returned a concentration for half-maximal inhibition (IC50) of 2.3 nM.

For the compound `C=CC(=O)N1CC2(CC(n3nc(-c4ccc(C(F)(F)F)c(F)c4)c(C(N)=O)c3N)C2)C1` [Example 142], the half-maximal inhibitory concentration (IC50) amounted to 29 nM. For `CC#CC(=O)N1CC2(CC(n3nc(-c4ccc(Oc5ccccc5)nc4)c(C(N)=O)c3N)C2)C1` [Example 102] the value was 2.7 nM; for `C=CC(=O)N1CC[C@]2(C1)C[C@@H](n1nc(-c3ccc(Oc4ccccc4)nc3)c(C(N)=O)c1N)C2` [Example 123], 9.1 nM. `C=CC(=O)N1CC2(CC(n3nc(-c4ccc(O)cc4)c(C(N)=O)c3N)C2)C1` [Example 133] had an IC50 of 8.4 nM. Consider `C=CC(=O)N1CCC[C@@H](n2cc(C(N)=O)c(-c3ccc(Oc4ccccc4)c(Cl)c3)n2)C1` [Example 24], for which the midpoint of inhibition, the IC50, lay at 9.4 nM. `CC#CC(=O)N1CC[C@]2(C1)C[C@@H](n1nc(-c3ccc(Oc4ccccc4)cn3)c(C(N)=O)c1N)C2` [Example 118] gave a 50% inhibitory concentration (IC50) of 0.5 nM. For `C=CC(=O)N1CC2(CC(c3nc(-c4ccc(Oc5ccccc5)cc4)c(C(N)=O)s3)C2)C1` [Example 57] the value was 3.2 nM. To `C=CC(=O)NCCn1cc(C(N)=O)c(-c2ccc(Oc3ccccc3)cc2)n1` [Example 39] belongs 290 nM.

For the compound `CC#CC(=O)N1CCC[C@@H](c2nc(-c3ccc(Oc4ccccc4)cc3)c(C(N)=O)[nH]2)C1` [Example 59], the half-maximal inhibitory concentration (IC50) turned out to be 8.9 nM. To `C=CC(=O)N1CCC[C@@H](n2cc(C(N)=O)c(-c3ccc(Cc4ccccc4)cc3)n2)C1` [Example 9] belongs 14 nM; to `C=CC(=O)NC1CC2(C1)CC(n1nc(-c3ccc(Oc4ccccc4)cc3)c(C(N)=O)c1N)C2` (stereo not drawn) [Example 97], 0.8 nM. To `C=CC(=O)N1CCC[C@@H](n2cc(C(N)=O)c(-c3ccc(Oc4ccc(OC)cc4)cc3)n2)C1` [Example 67] belongs 38 nM; to `C=CC(=O)N1CCC2(CC1)CC(n1cc(C(N)=O)c(-c3ccc(Oc4ccccc4)cc3)n1)C2` [Example 86], 95 nM. `CN(C)C/C=C/C(=O)N1CCC[C@H]1Cn1cc(C(N)=O)c(-c2ccc(Oc3ccccc3)cc2)n1` [Example 36] displayed a concentration for half-maximal inhibition (IC50) of 230 nM. `C=CC(=O)N1CCC[C@@H](n2cc(C(N)=O)c(-c3ccc(Nc4nc5ccccc5o4)cc3)n2)C1` [Example 27] had an IC50 of 300 nM. `C=CC(=O)N1CCC[C@@H](n2cc(C(N)=O)c(-c3ccc(Oc4ccc(F)cc4)cc3)n2)C1` [Example 62] returned a 50% inhibitory concentration (IC50) of 93 nM. For `CC#CC(=O)N1CCC(n2cc(C(N)=O)c(-c3ccc(Oc4ccccc4)cc3)n2)CC1` [Example 56] the value was 15 nM. To `CC#CC(=O)N1CCC[C@H]1Cn1cc(C(N)=O)c(-c2ccc(Oc3ccccc3)cc2)n1` [Example 32] belongs 150 nM. To `CC#CC(=O)N1CC[C@]2(C1)C[C@H](n1nc(-c3ccc(OC(C)C)cc3)c(C(N)=O)c1N)C2` [Example 168] belongs 1.2 nM. `C=CC(=O)NCCc1nc(-c2ccc(Oc3ccccc3)cc2)c(C(N)=O)s1` [Example 34] registered an IC50 of 21 nM.

In the case of `C=CC(=O)N1CC[C@]2(C1)C[C@H](n1nc(-c3ccc(C(F)(F)F)cc3)c(C(N)=O)c1N)C2` [Example 130], inhibition was half-maximal at 6.4 nM (IC50). Compound `C=CC(=O)N1CC[C@]2(C1)C[C@H](n1nc(-c3cccc(OC)c3)c(C(N)=O)c1N)C2` [Example 155] came in with an IC50 of 7.3 nM. In the case of `C=CC(=O)N1CCC[C@@H](n2cc(C(N)=O)c(-c3ccc(-c4ccccc4)cc3)n2)C1` [Example 1], the concentration for half-maximal inhibition (IC50) is 2600 nM. `CC#CC(=O)N1CC[C@]2(C1)C[C@H](n1nc(-c3ccc(OCCC)cc3)c(C(N)=O)c1N)C2` [Example 140] displayed an IC50 of 0.9 nM. For `C=CC(=O)N1CC2(CC(n3nc(-c4ccc(OCCC)c(F)c4)c(C(N)=O)c3N)C2)C1` [Example 139] the value was 16 nM.

`C=CC(=O)N1CCC(Cn2cc(C(N)=O)c(-c3ccc(Oc4ccccc4)cc3)n2)C1` (stereo not drawn) [Example 42] showed an IC50 of 64 nM. For `C=CC(=O)N1CC2(CC(n3nc(-c4ccc(Oc5ccccc5)cc4)c(C(N)=O)c3N)C2)C1` [Example 35] the value was 0.77 nM.

Regarding `C=CC(=O)N1CC[C@]2(C1)C[C@H](n1nc(-c3ccc(Oc4ccccc4)cc3)c(C(N)=O)c1N)C2` [Example 80], half-maximal inhibition (IC50) was put at 0.93 nM.

The compound `CC#CC(=O)N1CCC[C@@H](c2nc(-c3ccc(Oc4ccccc4)cc3)c(C(N)=O)s2)C1` [Example 52] displayed a 50% inhibitory concentration (IC50) of 18 nM. Compound `CN(C)C/C=C/C(=O)N1CC[C@]2(C1)C[C@@H](n1nc(-c3ccc(Oc4ccccc4)cc3)c(C(N)=O)c1N)C2` [Example 98] yielded an IC50 of 0.7 nM. In the case of `C=CC(=O)N1CCC[C@@H](n2cc(C(N)=O)c(-c3ccc(NC(=O)c4cc5ccccc5n4C)c(OC)c3)n2)C1` [Example 25], the IC50 came to 5.1 nM.

As for `C=CC(=O)N1CCC[C@@H](n2cc(C(N)=O)c(-c3cccc(NS(C)(=O)=O)c3)n2)C1` [Example 17], the midpoint of inhibition, the IC50, lay at 4800 nM. In turn, `C=CC(=O)NCCn1nc(-c2ccc(Oc3ccccc3)cc2)c(C(N)=O)c1N` [Example 44] yielded a half-maximal inhibitory concentration (IC50) of 1 nM.

`C=CC(=O)N1CC[C@]2(C1)C[C@@H](n1nc(-c3ccc(Oc4ccccc4)cn3)c(C(N)=O)c1N)C2` [Example 117]: 1.1 nM corresponded to half-maximal inhibition (IC50).

Take `NC(=O)c1cn([C@@H]2CCCN(C(=O)C#CCN3CCOCC3)C2)nc1-c1ccc(Oc2ccccc2)cc1` [Example 93]: the half-inhibitory concentration (IC50) came to 33 nM. To `C=CC(=O)N1CC[C@]2(C1)C[C@H](n1nc(-c3ccc(OC4CC4)cc3)c(C(N)=O)c1N)C2` [Example 156] belongs 16 nM. For the compound `C=CC(=O)N1CCC[C@@H](n2cc(C(N)=O)c(-c3ccc(OCCOC)cc3)n2)C1` [Example 95], the IC50 was 1600 nM. For `CC#CC(=O)N1CC[C@]2(C1)C[C@H](n1nc(-c3ccc(C(F)(F)F)cc3)c(C(N)=O)c1N)C2` [Example 128] the value was 0.9 nM; for `CC#CC(=O)N1CCC2(CC1)CC(c1nc(-c3ccc(Oc4ccccc4)cc3)c(C(N)=O)[nH]1)C2` [Example 87], 4.3 nM. `C=CC(=O)N1CCC[C@@H](n2cc(C(N)=O)c(-c3ccc(Oc4cccc(S(C)(=O)=O)c4)cc3)n2)C1` [Example 65] displayed a half-inhibitory concentration (IC50) of 330 nM. For `CC#CC(=O)N1CC[C@]2(C1)C[C@H](n1nc(-c3ccc(OC4CC4)cc3)c(C(N)=O)c1N)C2` [Example 157] the value was 2 nM; for `CC#CC(=O)N1CCC2(CC1)CC(c1nc(-c3ccc(Oc4ccccc4)cc3)c(C(N)=O)s1)C2` [Example 85], 300 nM. In the case of `CC#CC(=O)N1CC2(CC(n3nc(-c4ccc(C(F)(F)F)cc4)c(C(N)=O)c3N)C2)C1` [Example 147], the 50% inhibitory concentration (IC50) is 9.2 nM. Regarding `C=CC(=O)N1CCC[C@H]1Cc1nc(-c2ccc(Oc3ccccc3)cc2)c(C(N)=O)s1` [Example 50], the midpoint of inhibition, the IC50, lay at 3 nM. To `C=CC(=O)N1CC[C@]2(C1)C[C@@H](n1nc(-c3ccc(Oc4ccccc4)cn3)c(C(N)=O)c1N)C2` [Example 120] belongs 3.5 nM.

Consider `CC#CC(=O)N1CCC[C@H]1Cc1nc(-c2ccc(Oc3ccccc3)cc2)c(C(N)=O)s1` [Example 53], for which the half-maximal inhibitory concentration (IC50) is 14 nM.

Consider `C=CC(=O)N1CCC[C@@H](n2cc(C(N)=O)c(-c3cccc(NS(=O)(=O)c4ccc(C)cc4)c3)n2)C1` [Example 11], for which the IC50 was 5500 nM.

Compound `C=CC(=O)N1CC2(CC(n3nc(-c4ccc(OC(C)C)cc4)c(C(N)=O)c3N)C2)C1` [Example 105] displayed an IC50 of 13 nM. For `CC#CC(=O)N1CC[C@]2(C1)C[C@@H](n1nc(-c3ccc(OCCC)cc3)c(C(N)=O)c1N)C2` [Example 127] the value was 15 nM; for `C=CC(=O)N1CCC[C@@H](n2cc(C(N)=O)c(-c3ccc(NC(=O)c4ccc(C(F)(F)F)cc4F)c(OC)c3)n2)C1` [Example 26], 22 nM; for `CC#CC(=O)N1CC2(CC(n3nc(-c4ccc(F)c(OCC(F)(F)F)c4)c(C(N)=O)c3N)C2)C1` [Example 149], 100 nM.

`C=CC(=O)N1CCC2(CC1)CC(n1nc(-c3ccc(Oc4ccccc4)cc3)c(C(N)=O)c1N)C2` [Example 82] gave a concentration for half-maximal inhibition (IC50) of 2 nM.

The compound `C=CC(=O)N1CCC[C@@H](n2cc(C(N)=O)c(-c3ccc(-n4nc(C)cc4C)cc3)n2)C1` [Example 14] yielded an IC50 of 7800 nM. The compound `CC#CC(=O)N1CCC[C@@H](n2cc(C(N)=O)c(-c3ccc(Oc4ccccc4)cc3)n2)C1` [Example 31] yielded a concentration for half-maximal inhibition (IC50) of 80 nM.
